As usually defined, the pIC50 is the negative decadic logarithm of the IC50, by convention in mol/L. A low value points to a large IC50.

Experimental findings from US20030099693A1, “Wafer” (priority 2001, published 2003) are described below.

Type in all cases: biochemical
Details in all cases: Adjusted for Plasma Protein Binding

The target of one test is MMP-9 (Homo sapiens, UniProt P14780). Put plainly: Concentration for 50% enzyme inhibition, MMP-9. The text has this:
(§1) The solubility range to achieve efficacious doses without adverse effects for a range of protease inhibitors is shown in Table 1.

The target of the next test is T1, MMP-2 (Homo sapiens, UniProt P08253).
T1 sequence (P08253 110-660): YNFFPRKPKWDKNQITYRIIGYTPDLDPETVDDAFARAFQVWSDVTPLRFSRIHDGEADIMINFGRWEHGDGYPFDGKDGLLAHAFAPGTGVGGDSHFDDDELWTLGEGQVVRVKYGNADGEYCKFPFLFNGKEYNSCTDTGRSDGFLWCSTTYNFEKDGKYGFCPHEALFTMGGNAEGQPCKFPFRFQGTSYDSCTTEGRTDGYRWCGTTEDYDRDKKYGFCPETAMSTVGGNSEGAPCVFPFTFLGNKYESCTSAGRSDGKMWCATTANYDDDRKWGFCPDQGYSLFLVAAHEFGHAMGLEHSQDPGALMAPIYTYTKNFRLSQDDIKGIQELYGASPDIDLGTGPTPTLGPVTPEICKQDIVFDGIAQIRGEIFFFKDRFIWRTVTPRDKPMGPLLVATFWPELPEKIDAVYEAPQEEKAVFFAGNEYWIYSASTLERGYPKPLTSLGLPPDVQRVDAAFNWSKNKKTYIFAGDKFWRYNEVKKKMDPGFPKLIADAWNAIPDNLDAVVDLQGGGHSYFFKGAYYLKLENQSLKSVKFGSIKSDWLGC
As to the kind of experiment: Concentration for 50% enzyme inhibition, MMP-2.

A further test addresses MMP-3 (Homo sapiens, UniProt P08254). Put plainly: Concentration for 50% enzyme inhibition, MMP-3.
A further test deals with MMP-14 (Homo sapiens, UniProt P50281). Put plainly: Concentration for 50% enzyme inhibition, MMP-14.
The next test concerns the target uPA (Homo sapiens, UniProt P00749). As to the kind of experiment: Concentration for 50% enzyme inhibition, uPA.
In a further test the target is Plasmin (Homo sapiens, UniProt P00747). Put plainly: Concentration for 50% enzyme inhibition, Plasmin.
Chain of Plasmin (P00747 581-810 limits assumed, species assumed): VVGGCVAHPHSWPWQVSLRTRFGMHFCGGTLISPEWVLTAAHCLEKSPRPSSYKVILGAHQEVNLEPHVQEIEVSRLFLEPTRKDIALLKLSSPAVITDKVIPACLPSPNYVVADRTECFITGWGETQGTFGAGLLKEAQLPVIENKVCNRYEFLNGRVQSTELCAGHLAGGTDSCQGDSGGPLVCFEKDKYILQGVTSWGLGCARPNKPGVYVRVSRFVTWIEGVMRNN
Chain of Plasmin (P00747 97-580 partner limits assumed, species assumed): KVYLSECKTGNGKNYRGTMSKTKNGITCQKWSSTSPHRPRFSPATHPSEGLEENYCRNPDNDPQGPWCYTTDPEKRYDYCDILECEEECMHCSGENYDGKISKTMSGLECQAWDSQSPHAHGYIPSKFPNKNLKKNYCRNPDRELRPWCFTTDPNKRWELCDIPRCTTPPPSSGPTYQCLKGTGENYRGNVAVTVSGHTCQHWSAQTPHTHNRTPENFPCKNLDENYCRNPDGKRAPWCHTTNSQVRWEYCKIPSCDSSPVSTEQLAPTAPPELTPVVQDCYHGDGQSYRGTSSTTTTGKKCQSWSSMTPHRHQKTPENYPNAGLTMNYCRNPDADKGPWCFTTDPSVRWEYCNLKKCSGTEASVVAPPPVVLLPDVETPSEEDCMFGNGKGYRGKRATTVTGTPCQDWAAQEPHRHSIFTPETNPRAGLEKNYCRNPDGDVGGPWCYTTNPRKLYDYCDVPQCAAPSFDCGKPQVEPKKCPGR
Text: as §1

The target in a further test is TPA (Homo sapiens, UniProt P00750). As to the kind of experiment: Concentration for 50% enzyme inhibition, TPA.
Chain of TPA (P00750 36-562, species assumed): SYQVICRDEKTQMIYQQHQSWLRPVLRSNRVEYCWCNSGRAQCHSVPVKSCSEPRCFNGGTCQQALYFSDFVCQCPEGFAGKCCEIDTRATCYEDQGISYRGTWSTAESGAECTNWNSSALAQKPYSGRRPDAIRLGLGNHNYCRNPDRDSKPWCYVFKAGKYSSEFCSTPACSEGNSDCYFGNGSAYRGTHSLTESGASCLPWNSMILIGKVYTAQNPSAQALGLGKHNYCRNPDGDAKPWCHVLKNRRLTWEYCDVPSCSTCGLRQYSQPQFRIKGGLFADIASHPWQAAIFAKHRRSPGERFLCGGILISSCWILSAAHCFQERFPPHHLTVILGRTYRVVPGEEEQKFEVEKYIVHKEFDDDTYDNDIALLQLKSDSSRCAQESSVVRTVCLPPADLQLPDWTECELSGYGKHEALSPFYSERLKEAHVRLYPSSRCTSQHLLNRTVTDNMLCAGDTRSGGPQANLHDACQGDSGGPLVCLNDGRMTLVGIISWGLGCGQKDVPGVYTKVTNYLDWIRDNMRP
Text: as §1

pIC50: −log10 of the molar value. Bounds are passed on as bounds.

Chain of MMP-3 (P08254 100-477, species assumed): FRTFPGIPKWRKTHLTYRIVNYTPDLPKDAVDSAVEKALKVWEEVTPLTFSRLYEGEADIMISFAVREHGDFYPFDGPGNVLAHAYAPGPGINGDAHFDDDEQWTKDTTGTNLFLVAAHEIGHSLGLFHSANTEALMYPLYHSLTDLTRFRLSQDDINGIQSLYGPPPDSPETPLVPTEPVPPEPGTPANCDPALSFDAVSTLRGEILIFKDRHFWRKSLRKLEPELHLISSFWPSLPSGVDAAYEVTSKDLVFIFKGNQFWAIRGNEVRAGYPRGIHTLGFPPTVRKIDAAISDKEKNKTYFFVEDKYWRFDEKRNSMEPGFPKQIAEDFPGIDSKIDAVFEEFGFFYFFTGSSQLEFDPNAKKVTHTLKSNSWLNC
Chain of MMP-9 (P14780 94-707, species assumed): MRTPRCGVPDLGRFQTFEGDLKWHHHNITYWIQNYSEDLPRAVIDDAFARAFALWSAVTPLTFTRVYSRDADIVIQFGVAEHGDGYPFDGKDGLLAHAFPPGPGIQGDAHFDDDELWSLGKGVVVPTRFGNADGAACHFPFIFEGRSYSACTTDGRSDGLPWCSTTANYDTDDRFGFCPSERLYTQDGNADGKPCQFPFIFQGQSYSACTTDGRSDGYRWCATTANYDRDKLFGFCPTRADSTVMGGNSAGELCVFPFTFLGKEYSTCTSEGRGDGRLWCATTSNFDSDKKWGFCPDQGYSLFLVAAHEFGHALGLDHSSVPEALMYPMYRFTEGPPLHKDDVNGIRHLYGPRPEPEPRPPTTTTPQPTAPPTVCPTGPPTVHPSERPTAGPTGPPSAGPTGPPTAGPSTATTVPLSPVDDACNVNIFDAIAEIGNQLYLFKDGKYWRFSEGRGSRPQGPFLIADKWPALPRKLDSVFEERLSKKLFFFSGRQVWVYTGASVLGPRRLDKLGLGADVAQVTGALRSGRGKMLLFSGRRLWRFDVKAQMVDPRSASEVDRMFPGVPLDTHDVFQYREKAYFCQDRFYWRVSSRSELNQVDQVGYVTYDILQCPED

As for `COC[C@@H](NC(=O)[C@@H](NC(=O)[C@H](CCCc1ccc(-c2ccccc2)c(C)c1)CC(=O)O)C(C)(C)C)c1ccccc1` [A, (3R)-3-({[(1S)-2,2-Dimethyl-1-({[(1S)-2-methoxy-1-phenylethyl]amino}carbonyl)-propyl]amino}carbonyl)-6-[(3-methyl-4-phenyl)phenyl]hexanoic acid], the pIC50 on MMP-9 was 1.78; at MMP-2 it was 1.56; on MMP-3, 4.76; at MMP-14, 1.45.
As to `NC(N)=Nc1ncc(Cl)c2ccc(-c3cccc(C(=O)O)c3)cc12` [inhibitor X, 3-(4-Chloro-1-guanidino-7-isoquinolyl)benzoic acid], the values for the pIC50 at uPA, at Plasmin and on TPA were 4.93, 1.48 and less than 1.48, respectively.
